Format in all cases: physicochemical
A short description of data set [1]: Lipophilicity, logD of compound at pH 1.3 by shake flask method based 31P-NMR analysis. To be noted: buffer.
A short description of data set [2]: […]-water partition coefficient, logP of compound by shake flask method based 31P-NMR analysis. To be noted: octanol/water.
Data set [3] in a line: Basicity of hydrogen bond, pKHB of compound by IR spectroscopy.
Data set [4] is described as follows: Octanol-water partition coefficient, logP of compound by shake flask method based 31P-NMR analysis.
Data set [5] in a line: Octanol-water partition coefficient, logP of compound at pH 1.3 by shake flask method based 31P-NMR analysis.
A short description of data set [6]: Lipophilicity, logD of compound at pH 3 by shake flask method based 31P-NMR analysis. To be noted: buffer.
A short description of data set [7]: Lipophilicity, logD of compound at pH 7.4 by shake flask method based 31P-NMR analysis. Conditions: buffer.

For `C[C@@H]1C[C@H]2[C@@H]3CCC4=CC(=O)C=C[C@]4(C)[C@@]3(F)[C@@H](O)C[C@]2(C)[C@@]1(O)C(=O)COP(=O)(O)O` [DEXAMETHASONE SODIUM PHOSPHATE], in data set [1], the logD – broadly, the decadic logarithm of the distribution of all forms, ionised or not, between an organic phase and buffer at a given pH – is 1.24.

With `CCOP(=O)(OCC)SCC`, the logP (usually a log measure of how a compound divides between an organic and an aqueous phase) in data set [2] came to 1.42. Moreover, the pKHB in data set [3] is reported as 2.377. In turn, `CCOP(=O)(OCC)OCC` [TRIETHYL PHOSPHATE] displayed a pKHB in data set [3] of 2.574. With `COP(=O)(OC)OC` [TRIMETHYL PHOSPHATE], the logP in data set [2] is -0.4. Consider `CCOP(=O)(OCC)c1ccccc1`, for which the logP in data set [4] was determined as 1.1. In data set [1], `CCCCCCC(O)(P(=O)(O)O)P(=O)(O)O` gave a logD of -0.08. Compound `CCOP(=S)(OCC)c1ccccc1` registered a logP in data set [4] of 3.66. With `O=P(CCCO)(CCCO)CCCO`, the logP in data set [2] is -2.49. The same measure, in the same setting: the result for `CCOP(=S)(OCC)Oc1ccc([N+](=O)[O-])cc1` [PARATHION] reads 3.08. Still for that read-out and setting: the result for `CCOP(=S)(OCC)SCC` reads 3.38; that for `CCOP(=S)(OCC)Oc1ccc(OC)cc1`, 3.37. `CP(C)(C)=[Se]` yielded a logP in data set [2] of -0.02. The compound also had a pKHB in data set [3] of 1.519. Consider `CCCCCCCC(O)(P(=O)(O)O)P(=O)(O)O`, for which, in data set [1], the logD was determined as 0.6. Regarding `CP(C)(C)=S`, the logP in data set [2] is -0.23. For the same compound, the pKHB in data set [3] is recorded as 1.533. Turning to `O=P(O)(O)C(O)(c1ccccc1)P(=O)(O)O`, the logP in data set [5] was -1.87. `CCOP(=O)(OCC)Oc1ccccc1` [PHOSPHORIC ACID DIETHYL ESTER PHENYL ESTER]: the logP in data set [2] was 2.07. Take `O=P(O)(O)C(O)(c1ccc(F)cc1)P(=O)(O)O`: in data set [1], the logD is -1.57. In the case of `CP(C)(C)=O`, the logP in data set [2] is -1.6. Besides, in data set [3], the pKHB is reported as 3.444. For the compound `OCCCP(=[Se])(CCCO)CCCO`, the logP in data set [2] is -0.9. Consider `CCOP(=S)(OCC)Oc1ccccc1`, for which, in data set [2], the logP worked out at 3.34. Compound `CCOP(=O)(OCC)Oc1ccc(OC)cc1` had a logP in data set [2] of 2.14. `O=P(O)(O)C(O)(c1cc(F)c(F)c(F)c1)P(=O)(O)O`: the logD in data set [1] is -0.69. `CCOP(=O)(OCC)Oc1ccc([N+](=O)[O-])cc1` [PARAOXON]: in data set [2], the logP turned out to be 2.11.

For `O=P(O)(O)C(O)(c1ccccc1F)P(=O)(O)O`, the logD is -3.25 in data set [6] and -2.16 in data set [1]. `OCCCP(=S)(CCCO)CCCO`: in data set [2], the logP was -1.2. In data set [1], `CCCCCCCCCC(O)(P(=O)(O)O)P(=O)(O)O` yielded a logD of 1.72. As to `CC(C)OC(=O)OCOP(=O)(CO[C@H](C)Cn1cnc2c(N)ncnc21)OCOC(=O)OC(C)C` [TENOFOVIR DISOPROXIL], the logD in data set [7] and in data set [1] was 1.26 each time.

With `CCNP(=O)(OCC)OCC`, the logP in data set [2] was found to be 0.54.

Values taken from ChEMBL document CHEMBL5131543, “Studying Lipophilicity Trends of Phosphorus Compounds by 31P-NMR Spectroscopy: A Powerful Tool for the Design of P-Containing Drugs” (J Med Chem, 2022).
